The text below walks through data of PubChem BioAssay (NCI).

Some test systems named below: SNB-19 CNS; MDA-N; LOX IMVI melanoma; PC-3 prostate; U251 CNS; HCT-116 colon; IGROV1 ovarian; HS 578T breast; MALME-3M melanoma; HCT-15 colon; SNB-75 CNS.
What all share (assay): growth of human tumour cells (NCI), 48 h

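96-well plates; 48 h exposure; 5 concentrations. Endpoints by linear interpolation between flanking doses. Not reached: highest tested concentration assigned. GI50 marks 50% less growth. The concentration for full growth arrest is given as TGI.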

For the compound `O=C(O)CSc1nc2ccccc2[nH]1`, the TGI in the assay on SNB-19 CNS, with MDA-N, in the assay with LOX IMVI melanoma, in the assay on PC-3 prostate, in the assay on U251 CNS and in the assay with HCT-116 colon was greater than 100 µM each time. In addition, the TGI with IGROV1 ovarian, in the assay with HS 578T breast, in the assay on MALME-3M melanoma, with HCT-15 colon and with SNB-75 CNS was greater than 100 µM in each case.
On to `COc1cc(CN(C)N2C(=O)c3cccc4cc([N+](=O)[O-])cc(c34)C2=O)cc(OC)c1OC`, for which the TGI in the assay with SNB-19 CNS, in the assay on MDA-N, in the assay with PC-3 prostate, with U251 CNS, in the assay with IGROV1 ovarian and with HS 578T breast was greater than 100 µM each time. The TGI in the assay on MALME-3M melanoma was greater than 100 µM; in the assay on HCT-15 colon, greater than 100 µM; in the assay on SNB-75 CNS, 60.1 µM.
Turning to `ClCc1nnc2n1-c1ccc(Cl)cc1SC2`, the TGI with SNB-19 CNS came out at 25.7 µM; in the assay on LOX IMVI melanoma it was 2.82 µM; with U251 CNS it was 19.8 µM; in the assay with HCT-116 colon, 12.7 µM; in the assay on IGROV1 ovarian, 8.09 µM; in the assay on MALME-3M melanoma, 15.8 µM. Moreover, the TGI is 23.8 µM in the assay with HCT-15 colon and 10.3 µM in the assay on SNB-75 CNS.
For the compound `CCNc1nc2c(=O)n(C)c(=O)n(C)c2s1`, the TGI in the assay with SNB-19 CNS, in the assay with LOX IMVI melanoma, in the assay with U251 CNS, in the assay with HCT-116 colon, in the assay with IGROV1 ovarian and in the assay with MALME-3M melanoma was greater than 100 µM each time. Moreover, the TGI in the assay with HCT-15 colon and in the assay with SNB-75 CNS was greater than 100 µM each time.
For `CCOC(=O)c1csc(NC(=O)CCN2CCOCC2)n1`, the TGI in the assay on SNB-19 CNS, in the assay on MDA-N, with LOX IMVI melanoma, in the assay on PC-3 prostate, with U251 CNS and in the assay with IGROV1 ovarian was greater than 100 µM in each case. Besides, the TGI in the assay on MALME-3M melanoma and in the assay with HCT-15 colon was greater than 100 µM each time.
Consider `Cc1cc(C)c(S(=O)(=O)N(CCCCCCN)OCCCON(CCCCCCN)S(=O)(=O)c2c(C)cc(C)cc2C)c(C)c1`, for which the TGI in the assay on SNB-19 CNS is 3.01 µM; in the assay on MDA-N, 3.61 µM; with LOX IMVI melanoma, 3.19 µM; in the assay on PC-3 prostate, 3.15 µM; in the assay with U251 CNS it was 3.15 µM; in the assay on HCT-116 colon it was 3.08 µM. Besides, the TGI with IGROV1 ovarian stood at 3.22 µM; in the assay on HS 578T breast it was 4.32 µM; in the assay on MALME-3M melanoma, 3.66 µM; in the assay with HCT-15 colon, 3.6 µM; with SNB-75 CNS, 3.17 µM.
Turning to `O=c1n(Cc2ccccc2)c2ccccc2n1CC1CS1` (stereo not drawn), the TGI in the assay on SNB-19 CNS, in the assay with LOX IMVI melanoma, in the assay on HCT-116 colon, in the assay with IGROV1 ovarian, in the assay with MALME-3M melanoma and in the assay on HCT-15 colon was greater than 100 µM each time. Further, the TGI with SNB-75 CNS was greater than 100 µM.
As for `C=C1CC2(C)CCC(OC(=O)C3(C)OC3C)C(C)(OC(C)=O)C2CC1=C(C)C` (stereo not drawn), the TGI with SNB-19 CNS, in the assay with MDA-N, with LOX IMVI melanoma, with PC-3 prostate, in the assay on U251 CNS and in the assay with HCT-116 colon was greater than 100 µM each time. Also, the TGI with IGROV1 ovarian, in the assay on HS 578T breast, in the assay with MALME-3M melanoma, in the assay on HCT-15 colon and in the assay on SNB-75 CNS was greater than 100 µM throughout.
For the compound `CC1(C)CCCC2(C)[C@@H]1CC[C@]13C[C@](C)(CC[C@@H]21)[C@@H]3CO` (stereo partly drawn), the TGI in the assay on SNB-19 CNS, in the assay with LOX IMVI melanoma, with U251 CNS, in the assay on HCT-116 colon, in the assay with IGROV1 ovarian and in the assay on MALME-3M melanoma was greater than 100 µM throughout. For the same compound, the TGI in the assay on HCT-15 colon and in the assay on SNB-75 CNS was greater than 100 µM in each case.
`Fc1cc(C2=Nn3c(nnc3-c3cc(F)c(Cl)cc3Cl)SC2)c(Cl)cc1Cl`: the GI50 in the assay with SNB-19 CNS is 22.7 µM; in the assay on LOX IMVI melanoma, 21.6 µM; in the assay on PC-3 prostate, 16.9 µM; with U251 CNS, 20.4 µM; in the assay on IGROV1 ovarian, 29.8 µM; with HS 578T breast it was 21.9 µM. Besides, the GI50 with MALME-3M melanoma is 28.4 µM; in the assay on HCT-15 colon it was 20.2 µM; with SNB-75 CNS, 26.2 µM. For the same compound, the TGI is 93.4 µM in the assay with SNB-19 CNS; 45.6 µM in the assay on LOX IMVI melanoma; greater than 100 µM in the assay on PC-3 prostate; 64 µM with U251 CNS; greater than 100 µM with IGROV1 ovarian; 55 µM in the assay with HS 578T breast. For the same compound, the results for the TGI in the assay with MALME-3M melanoma, with HCT-15 colon and in the assay with SNB-75 CNS were 66.7 µM, 70.2 µM and greater than 100 µM, respectively.
Regarding `COc1ccc2c(c1)C(=O)/C(=C/c1ccccc1)C2`, the TGI in the assay with SNB-19 CNS, in the assay with MDA-N, with PC-3 prostate, in the assay with U251 CNS, in the assay on IGROV1 ovarian and in the assay on HS 578T breast was greater than 100 µM in each case. Besides, the TGI in the assay on MALME-3M melanoma, in the assay with HCT-15 colon and in the assay on SNB-75 CNS was greater than 100 µM throughout.
